Experimental findings from patent US20180118707A1, “BETA-NAPHTHOISOFLAVONES, COMPOSITIONS CONTAINING, AND USES OF, SAME” (Thesan Pharmaceuticals, Inc., priority 2015, published 2018) are described below.

What all share (assay type): cell-based
One series deals with CYP1A1 enzyme. Put plainly: Induction of CYP1A1 enzyme in human cultured sebocytes, EROD assay. As to conditions: 10 uM, 24 h. As to the method:
(§1) Cells are seeded at between 1×10^4 and 2.5×10^4 cells/well in a 96-well microtitre plate. […] 100 μl of medium is then transferred to a fresh black 96-well plate and 130 μl methanol added. The formation of resorufin is quantified by fluorometry with a fluorescence plate reader. Fluorescence is determined at λex 570 nm and λem 590 nm. The amount of resorufin is calculated from a standard curve generated using 0 to 1 μM resorufin in water at ½ log dilutions. The remaining (i.e. all cells present at the beginning of analysis, since only supernatant is taken to assay EROD) live cells are subsequently utilized for the MU cytotoxicity assay. MU is made up in serum-free medium at 5 mg/mi. then added to the cells giving a final concentration of 10% (0.5 mg/ml MIT final) then incubated for 2 h. The medium is carefully removed, then MIT formazan is solubilized by adding 200 μl of DMSO and subsequently mixed on a plate shaker. The absorbance is measured spectrophotometrically at 550 nm and background absorbance at […] is subtracted. A standard curve generated using MTT formazan (dissolved in DMSO) from O—200 μM (0, 2, 5, 10, 20, 50, 100, 200 μM) is used to calculate the final experimental values which are then expressed as (μmol resorufin/mol MTT formazan) or as fold-induction compared to solvent.

A further series has as its system CYP1A1. The series is described as above. As to conditions: cultured sebocytes, probe 7-ethoxyresorufin (8 μM). As to the method:
as §1

A further series concerns human sebocyte cells. The experiment in a line: MTT cytotoxicity assay in human cultured sebocytes after EROD. As to the method:
The essential methodology for culture and handling of human cultured sebocytes has been described in earlier examples for HEPG2 and NHK cells. Cells are seeded at between 1×10^4 and 2.5×10^4 cells/well in a 96-well microtitre plate. […] The formation of resorufin is quantified by fluorometry with a fluorescence plate reader. Fluorescence is determined at λex 570 nm and λem 590 nm. The amount of resorufin is calculated from a standard curve generated using 0 to 1 μM resorufin in water at ½ log dilutions. The remaining (i.e. all cells present at the beginning of analysis, since only supernatant is taken to assay EROD) live cells are subsequently utilized for the MU cytotoxicity assay. MU is made up in serum-free medium at 5 mg/mi. then added to the cells giving a final concentration of 10% (0.5 mg/ml MIT final) then incubated for 2 h. The medium is carefully removed, then MIT formazan is solubilized by adding 200 μl of DMSO and subsequently mixed on a plate shaker. The absorbance is measured spectrophotometrically at 550 nm and background absorbance at […] is subtracted. A standard curve generated using MTT formazan (dissolved in DMSO) from O—200 μM (0, 2, 5, 10, 20, 50, 100, 200 μM) is used to calculate the final experimental values which are then expressed as (μmol resorufin/mol MTT formazan) or as fold-induction compared to solvent.
On the technique in general: Tetrazolium assays rely on reduction of a dye to a coloured formazan, in cell work by metabolically active cells.

Series [1] has as its target T1, Aryl Hydrocarbon Receptor (Homo sapiens, UniProt P35869).
T1 construct: endogenous in cells; host or cells: Normal human keratinocytes (NHK) transduced with the lentivector plox-XRE TATA-Luc (reporter only)
T1 sequence (P35869 11-848): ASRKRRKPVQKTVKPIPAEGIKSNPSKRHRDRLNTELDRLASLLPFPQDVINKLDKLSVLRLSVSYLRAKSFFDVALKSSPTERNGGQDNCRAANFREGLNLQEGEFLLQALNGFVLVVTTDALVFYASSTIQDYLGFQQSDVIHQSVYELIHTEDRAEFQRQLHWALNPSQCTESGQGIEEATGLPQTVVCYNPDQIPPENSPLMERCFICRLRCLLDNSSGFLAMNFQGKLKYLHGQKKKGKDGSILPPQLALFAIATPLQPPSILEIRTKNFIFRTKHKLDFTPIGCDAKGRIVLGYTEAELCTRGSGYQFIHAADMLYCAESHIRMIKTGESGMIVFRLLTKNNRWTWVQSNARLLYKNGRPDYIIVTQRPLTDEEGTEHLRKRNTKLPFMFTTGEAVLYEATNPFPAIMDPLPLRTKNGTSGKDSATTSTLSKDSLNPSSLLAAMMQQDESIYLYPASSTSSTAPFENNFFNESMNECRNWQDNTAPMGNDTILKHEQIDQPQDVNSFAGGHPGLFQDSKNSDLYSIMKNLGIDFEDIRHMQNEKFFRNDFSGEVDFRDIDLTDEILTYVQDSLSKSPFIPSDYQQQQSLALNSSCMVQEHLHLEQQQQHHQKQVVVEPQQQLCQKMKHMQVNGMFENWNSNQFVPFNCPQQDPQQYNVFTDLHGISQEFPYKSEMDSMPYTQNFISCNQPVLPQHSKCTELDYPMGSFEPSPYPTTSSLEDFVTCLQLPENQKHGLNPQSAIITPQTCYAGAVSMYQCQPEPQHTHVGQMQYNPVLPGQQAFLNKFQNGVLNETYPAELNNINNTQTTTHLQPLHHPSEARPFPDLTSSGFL
Put plainly: AhR activation luciferase reporter in Hep G2-plox-XRE TATA-Luc cells. The settings on record: treatment for 24 h with 1-10 uM. As to the method:
AhR activation is measured in HEP G2 cells (hepatocytes, Hep G2 is a human liver carcinoma cell line) stably transfected with the lentivector plox-XRE TATA-Luc. The Hep G2 cells are cultured in a growing media consisting of DM EM (Glbco)+10% fetal bovine serum+penicillin+streptomycin. At D0, the Hep G2 cells are seeded into 12-well plates in proportions of approximately 30,000 cells/cm^2. After 24 h, the medium is replaced with fresh medium and the cells are transduced with the lentivector plox-XRE TATA-Luc. After 48 h, the cells are subcultured and maintained in culture, and tested for their reactivity to 3-phenyl-1H-benzo[f]chromen-1-one. The tests are carried out using the luciferase reporter assay system kit from Promega. At D0, the cells are seeded at a density of approximately 60% confluence, and then treated, at D1, with the test substance diluted to various concentrations in the appropriate culture medium. At D2, the cells are lysed in CLB buffer, and the lysate is clarified by centrifugation for 5 min at 10 000 g. The luciferase activity is measured in 20 microliters of lysate as recommended by the supplier, using the luminoskan luminometer (Thermo). […] Data is processed and ECso's can be calculated from standard data monitoring software.
On the technique in general: In a reporter assay the amount or activity of a reporter protein is the signal.

SMILES strings stand for the structures.

For orientation: EC50 means the concentration that produces a half-maximal response.

Turning to `O=c1cc(-c2ccccc2)oc2ccc3ccccc3c12` [D, 3-Phenyl-1H-benzo[f]chromen-1-one, reference compound], the “% change vs. TCDD EROD (Sebs) at 10 uM” value in the series with CYP1A1 enzyme came out at 17%. The same compound showed an EC50 at 24 h in the series on CYP1A1 of 1 µM. In the series with human sebocyte cells, the Toxicity threshold was found to be 30 µM. The “induction of the luciferase activity” value in series [1] is recorded as “significant induction”.
